Source: ChEMBL document CHEMBL1649524, “Resistance selection studies comparing the activity of razupenem (PTZ601) to vancomycin and linezolid against eight methicillin-resistant and two methicillin-susceptible Staphylococcus aureus strains” (2009)

Tests used:
[1] = tested on: Staphylococcus aureus; assay: Antimicrobial activity against vancomycin-intermediate Staphylococcus aureus 555 by macrodilution method; format: functional
[2] = tested on: Staphylococcus aureus; assay: Antimicrobial activity against vancomycin-resistant Staphylococcus aureus 510 by macrodilution method; format: functional
[3] = tested on: Staphylococcus aureus; assay: Antimicrobial activity against vancomycin-resistant Staphylococcus aureus 509 by macrodilution method; format: functional
[4] = tested on: Staphylococcus aureus; assay: Antimicrobial activity against heterogeneous vancomycin-intermediate Staphylococcus aureus 168 after 50 passages by macrodilution method; format: functional
[5] = tested on: Staphylococcus aureus; assay: Antimicrobial activity against vancomycin-intermediate Staphylococcus aureus 1287 after 50 passages by macrodilution method; format: functional
[6] = tested on: Staphylococcus aureus; assay: Antimicrobial activity against methicillin-resistant Staphylococcus aureus 525 after 50 passages by macrodilution method; format: functional
[7] = tested on: Staphylococcus aureus; assay: Antimicrobial activity against methicillin-susceptible Staphylococcus aureus 540 after 50 passages by macrodilution method
[8] = tested on: Staphylococcus aureus; assay: Antimicrobial activity against methicillin-susceptible Staphylococcus aureus 543 after 50 passages by macrodilution method; format: functional
[9] = tested on: Staphylococcus aureus; assay: Antimicrobial activity against vancomycin-resistant Staphylococcus aureus 510 after 50 passages by macrodilution method; format: functional
[10] = tested on: Staphylococcus aureus; assay: Antimicrobial activity against vancomycin-resistant Staphylococcus aureus 509 measured after 10 antibiotic-free subculturing by macrodilution method; format: functional
[11] = tested on: Staphylococcus aureus; assay: Antimicrobial activity against vancomycin-intermediate Staphylococcus aureus 555 measured on day 5 by macrodilution method; format: functional; conditions: Staphylococcus aureus, 555, 120 h
[12] = tested on: Staphylococcus aureus; assay: Antimicrobial activity against vancomycin-intermediate Staphylococcus aureus 555 measured on day 10 by macrodilution method; format: functional; conditions: Staphylococcus aureus, 555, 240 h
[13] = tested on: Staphylococcus aureus; assay: Antimicrobial activity against vancomycin-intermediate Staphylococcus aureus 555 measured on day 15 by macrodilution method; format: functional; conditions: Staphylococcus aureus, 555, 360 h
[14] = tested on: Staphylococcus aureus; assay: Antimicrobial activity against vancomycin-intermediate Staphylococcus aureus 1287 measured on day 15 by macrodilution method; format: functional; conditions: Staphylococcus aureus, 1287, 360 h
[15] = tested on: Staphylococcus aureus; assay: Antimicrobial activity against methicillin-susceptible Staphylococcus aureus 540 measured on day 15 by macrodilution method; format: functional; conditions: Staphylococcus aureus, 540, 360 h
[16] = tested on: Staphylococcus aureus; assay: Antimicrobial activity against methicillin-susceptible Staphylococcus aureus 543 measured on day 15 by macrodilution method; format: functional; conditions: Staphylococcus aureus, 543, 360 h
[17] = tested on: Staphylococcus aureus; assay: Antimicrobial activity against heterogeneous vancomycin-intermediate Staphylococcus aureus 168 measured on day 20 by macrodilution method; format: functional; conditions: Staphylococcus aureus, 168, 480 h
[18] = tested on: Staphylococcus aureus; assay: Antimicrobial activity against vancomycin-intermediate Staphylococcus aureus 555 measured on day 20 by macrodilution method; format: functional; conditions: Staphylococcus aureus, 555, 480 h
[19] = tested on: Staphylococcus aureus; assay: Antimicrobial activity against methicillin-resistant Staphylococcus aureus 525 measured on day 20 by macrodilution method; format: functional; conditions: Staphylococcus aureus, 525, 480 h
[20] = tested on: Staphylococcus aureus; assay: Antimicrobial activity against methicillin-susceptible Staphylococcus aureus 540 measured on day 20 by macrodilution method; format: functional; conditions: Staphylococcus aureus, 540, 480 h
[21] = tested on: Staphylococcus aureus; assay: Antimicrobial activity against methicillin-susceptible Staphylococcus aureus 543 measured on day 20 by macrodilution method; format: functional; conditions: Staphylococcus aureus, 543, 480 h
[22] = tested on: Staphylococcus aureus; assay: Antimicrobial activity against heterogeneous vancomycin-intermediate Staphylococcus aureus 168 measured on day 25 by macrodilution method; format: functional; conditions: Staphylococcus aureus, 168, 600 h
[23] = tested on: Staphylococcus aureus; assay: Antimicrobial activity against vancomycin-intermediate Staphylococcus aureus 555 measured on day 25 by macrodilution method; format: functional; conditions: Staphylococcus aureus, 555, 600 h
[24] = tested on: Staphylococcus aureus; assay: Antimicrobial activity against methicillin-resistant Staphylococcus aureus 547 measured on day 25 by macrodilution method; format: functional; conditions: Staphylococcus aureus, 547, 600 h
[25] = tested on: Staphylococcus aureus; assay: Antimicrobial activity against methicillin-susceptible Staphylococcus aureus 540 measured on day 25 by macrodilution method; format: functional; conditions: Staphylococcus aureus, 540, 600 h
[26] = tested on: Staphylococcus aureus; assay: Antimicrobial activity against methicillin-susceptible Staphylococcus aureus 543 measured on day 25 by macrodilution method; format: functional; conditions: Staphylococcus aureus, 543, 600 h
[27] = tested on: Staphylococcus aureus; assay: Antimicrobial activity against heterogeneous vancomycin-intermediate Staphylococcus aureus 873 measured on day 30 by macrodilution method; format: functional
[28] = tested on: Staphylococcus aureus; assay: Antimicrobial activity against vancomycin-intermediate Staphylococcus aureus 555 measured on day 30 by macrodilution method; format: functional
[29] = tested on: Staphylococcus aureus; assay: Antimicrobial activity against methicillin-resistant Staphylococcus aureus 525 measured on day 30 by macrodilution method; format: functional
[30] = tested on: Staphylococcus aureus; assay: Antimicrobial activity against methicillin-resistant Staphylococcus aureus 547 measured on day 30 by macrodilution method; format: functional
[31] = tested on: Staphylococcus aureus; assay: Antimicrobial activity against methicillin-susceptible Staphylococcus aureus 540 measured on day 30 by macrodilution method; format: functional
[32] = tested on: Staphylococcus aureus; assay: Antimicrobial activity against methicillin-susceptible Staphylococcus aureus 543 measured on day 30 by macrodilution method; format: functional
[33] = tested on: Staphylococcus aureus; assay: Antimicrobial activity against heterogeneous vancomycin-intermediate Staphylococcus aureus 168 measured on day 35 by macrodilution method; format: functional
[34] = tested on: Staphylococcus aureus; assay: Antimicrobial activity against vancomycin-intermediate Staphylococcus aureus 555 measured on day 35 by macrodilution method; format: functional
[35] = tested on: Staphylococcus aureus; assay: Antimicrobial activity against methicillin-resistant Staphylococcus aureus 525 measured on day 35 by macrodilution method; format: functional
[36] = tested on: Staphylococcus aureus; assay: Antimicrobial activity against methicillin-resistant Staphylococcus aureus 547 measured on day 35 by macrodilution method; format: functional
[37] = tested on: Staphylococcus aureus; assay: Antimicrobial activity against methicillin-susceptible Staphylococcus aureus 540 measured on day 35 by macrodilution method; format: functional
[38] = tested on: Staphylococcus aureus; assay: Antimicrobial activity against methicillin-susceptible Staphylococcus aureus 543 measured on day 35 by macrodilution method; format: functional
[39] = tested on: Staphylococcus aureus; assay: Antimicrobial activity against heterogeneous vancomycin-intermediate Staphylococcus aureus 168 measured on day 40 by macrodilution method; format: functional
[40] = tested on: Staphylococcus aureus; assay: Antimicrobial activity against vancomycin-intermediate Staphylococcus aureus 555 measured on day 40 by macrodilution method; format: functional
[41] = tested on: Staphylococcus aureus; assay: Antimicrobial activity against methicillin-resistant Staphylococcus aureus 525 measured on day 40 by macrodilution method; format: functional
[42] = tested on: Staphylococcus aureus; assay: Antimicrobial activity against methicillin-susceptible Staphylococcus aureus 540 measured on day 40 by macrodilution method; format: functional
[43] = tested on: Staphylococcus aureus; assay: Antimicrobial activity against heterogeneous vancomycin-intermediate Staphylococcus aureus 168 measured on day 45 by macrodilution method; format: functional
[44] = tested on: Staphylococcus aureus; assay: Antimicrobial activity against vancomycin-intermediate Staphylococcus aureus 555 measured on day 45 by macrodilution method; format: functional
[45] = tested on: Staphylococcus aureus; assay: Antimicrobial activity against vancomycin-intermediate Staphylococcus aureus 1287 measured on day 45 by macrodilution method; format: functional
[46] = tested on: Staphylococcus aureus; assay: Antimicrobial activity against methicillin-resistant Staphylococcus aureus 525 measured on day 45 by macrodilution method; format: functional
[47] = tested on: Staphylococcus aureus; assay: Antimicrobial activity against methicillin-susceptible Staphylococcus aureus 540 measured on day 45 by macrodilution method; format: functional
[48] = tested on: Staphylococcus aureus; assay: Antimicrobial activity against methicillin-susceptible Staphylococcus aureus 543 measured on day 45 by macrodilution method; format: functional
[49] = tested on: Staphylococcus aureus; assay: Antimicrobial activity against heterogeneous vancomycin-intermediate Staphylococcus aureus 168 measured on day 50 by macrodilution method; format: functional
[50] = tested on: Staphylococcus aureus; assay: Antimicrobial activity against vancomycin-intermediate Staphylococcus aureus 555 measured on day 50 by macrodilution method; format: functional
[51] = tested on: Staphylococcus aureus; assay: Antimicrobial activity against vancomycin-intermediate Staphylococcus aureus 1287 measured on day 50 by macrodilution method; format: functional
[52] = tested on: Staphylococcus aureus; assay: Antimicrobial activity against methicillin-resistant Staphylococcus aureus 525 measured on day 50 by macrodilution method; format: functional
[53] = tested on: Staphylococcus aureus; assay: Antimicrobial activity against methicillin-resistant Staphylococcus aureus 547 measured on day 50 by macrodilution method; format: functional
[54] = tested on: Staphylococcus aureus; assay: Antimicrobial activity against methicillin-susceptible Staphylococcus aureus 540 measured on day 50 by macrodilution method; format: functional
[55] = tested on: Staphylococcus aureus; assay: Antimicrobial activity against methicillin-susceptible Staphylococcus aureus 543 measured on day 50 by macrodilution method; format: functional
[56] = tested on: Staphylococcus aureus; assay: microbe, parasite or virus in culture; conditions: 555
Description: Antimicrobial activity against vancomycin-intermediate Staphylococcus aureus 555 after 50 passages by macrodilution method

[57] = tested on: Staphylococcus aureus; assay: microbe, parasite or virus in culture; conditions: 547
Description: Antimicrobial activity against methicillin-resistant Staphylococcus aureus 547 after 50 passages by macrodilution method

Measured: MIC

CN[C@H](CC(C)C)C(=O)N[C@H]1C(=O)N[C@@H](CC(N)=O)C(=O)N[C@H]2C(=O)N[C@H]3C(=O)N[C@H](C(=O)N[C@H](C(=O)O)c4cc(O)cc(O)c4-c4cc3ccc4O)[C@H](O)c3ccc(c(Cl)c3)Oc3cc2cc(c3O[C@@H]2O[C@H](CO)[C@@H](O)[C@H](O)[C@H]2O[C@H]2C[C@](C)(N)[C@H](O)[C@H](C)O2)Oc2ccc(cc2Cl)[C@H]1O [VANCOMYCIN]
≥ 64 µg/mL: [9]
> 64 µg/mL: [3] | [10]
64 µg/mL: [2]
32 µg/mL: [34] | [40] | [42] | [44]
8 µg/mL: [1] | [4] | [5] | [6] | [7] | [8] | [11] | [12] | [13] | [14] | [15] | [16] | [17] | [18] | [19] | [20] | [21] | [22] | [23] | [24] | [25] | [26] | [27] | [31] | [32] | [33] | [35] | [36] | [37] | [38] | [39] | [43] | [45] | [46] | [48] | [49] | [50] | [51] | [52] | [53] | [54] | [55] | [56] | [57]
16 µg/mL: [28] | [30] | [41] | [47]
0.06 µg/mL: [29]
